The term Ki denotes a dissociation constant, usually derived from enzyme kinetics or from competition with a known ligand.

Numbered stars: 1 amine (or outer) side, 2 acyl side, 3 side chain; on linkers, the order of the positions; unused ones are H or OH. Peptide text beside a SMILES is read from it. * marks the point of attachment. DOTA = O=C(O)CN1CCN(CC(=O)O)CCN(CC(=O)*)CCN(CC(=O)O)CC1; γGlu = O=C(O)[CH](CCC(=O)[*:2])N[*:1]; CO = O=C([*:1])[*:2]; Ahx = NCCCCCC(=O)O

Drawing on publication PMC10828251, “A novel PSMA-targeting tracer with highly negatively charged linker demonstrates decreased salivary gland uptake in mice compared to [^68Ga]Ga-PSMA-11” (EJNMMI Radiopharmacy and Chemistry, 2024), this text covers Ki for 1 compound.

The target of the experiment is T1, GCP-II (Homo sapiens, UniProt Q04609).
T1 construct: expressed in transfected cells; host or cells: PC3-PIP cells: washed membrane preparation after freeze-thaw cycles, 10 µg per well
T1 sequence (Q04609 whole entry): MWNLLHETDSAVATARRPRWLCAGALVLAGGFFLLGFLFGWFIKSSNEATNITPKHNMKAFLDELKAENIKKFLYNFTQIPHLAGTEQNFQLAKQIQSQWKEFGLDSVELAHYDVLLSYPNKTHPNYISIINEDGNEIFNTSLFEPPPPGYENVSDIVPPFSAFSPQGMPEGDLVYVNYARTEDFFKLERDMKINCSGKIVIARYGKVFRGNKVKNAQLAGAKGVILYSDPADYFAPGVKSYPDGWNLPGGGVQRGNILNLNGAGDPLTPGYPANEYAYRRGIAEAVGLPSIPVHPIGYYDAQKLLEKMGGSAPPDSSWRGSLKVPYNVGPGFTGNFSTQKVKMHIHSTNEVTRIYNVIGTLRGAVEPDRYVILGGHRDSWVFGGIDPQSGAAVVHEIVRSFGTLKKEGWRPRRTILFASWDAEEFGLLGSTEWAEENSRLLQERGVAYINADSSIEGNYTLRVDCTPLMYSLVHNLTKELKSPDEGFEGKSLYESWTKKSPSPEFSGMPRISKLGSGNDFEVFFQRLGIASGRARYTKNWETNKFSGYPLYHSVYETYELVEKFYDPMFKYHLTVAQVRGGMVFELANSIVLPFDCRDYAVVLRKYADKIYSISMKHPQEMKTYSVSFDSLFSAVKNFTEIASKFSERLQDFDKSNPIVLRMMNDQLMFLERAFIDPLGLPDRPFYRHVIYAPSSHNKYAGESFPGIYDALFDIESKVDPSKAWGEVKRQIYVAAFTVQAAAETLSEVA
Kind of experiment: fluorescent enzymatic inhibition assay (competitive binding assay; NAAG hydrolysis by PC3-PIP membranes, Amplex Red glutamic acid readout). The experiment is classed as biochemical. As to conditions: upper limit set from the EC50; read-out: upper limit of Ki to PSMA. On the procedure: Binding affinity of JB-1498 toward GCP-II was determined using fluorescent enzymatic inhibition assay (Kozikowski et al. [2004]) as detailed in the Additional file 1.
PC3-PIP PSMA expressing cells were grown to confluency, harvested in 50mM Tris-HCl, pH 7.5 and subjected to 4 freezing and thawing cycles. Cell membranes were washed three times by centrifugation at 12,000g or higher. The cell membrane mixture was diluted to a concentration of 50 mg/mL in 50mM Tris-HCl, pH 7.5 (based on wet weight of the solid after centrifugation) and stored in a -80°C freezer until ready to use.
The assays were conducted on 96-well plates. […] Then the glutamic acid concentration was measured with Amplex Red glutamic acid assay kit (Invitrogen-Molecular Probes, now part of Thermo Fisher Scientific, Waltham, MA)) using a fluorescent plate reader (excitation at 530nm, measuring emission at 590nm). The fluorescence signals at 590nm were then normalized and normalized fluorescence was plotted against the Log concentration of JB1498 ligand (Figure 1). EC50 was determined using the equation: Fluorescence = baseline + (max fluorescence – baseline) […]. Microsoft Excel and KaleidaGraph (Synergy Software, Reading, PA) were used for data processing and graphing.

For `NC(=O)C(CCCCNC(=O)CN1CCN(CC(=O)O)CCN(CC(=O)O)CCN(CC(=O)O)CC1)NC(=O)C(Cc1ccc(O)cc1)NC(=O)C(CCC(=O)O)NC(=O)C(CCC(=O)O)NC(=O)C(CCC(=O)O)NC(=O)CCCCCNC(=O)CCC(NC(=O)NC(CCC(=O)O)C(=O)O)C(=O)O` (stereo not shown) [JB-1498] ({Glu-CO-γGlu-Ahx}-EEEYK(DOTA)-NH2; configuration not given here), the Ki was less than 0.3 nM.
